Test results taken from US20240300924A1, “PYRAZOLE DERIVATIVE COMPOUND, ADHESIVE COMPOSITION COMPRISING SAME, AND ADHESIVE FILM COMPRISING SAME” (LG CHEM, LTD., priority 2021, published 2024).
Entries after “also recorded” stand apart in the source; their conditions may differ.

Legend:
Format in all cases: physicochemical
[1] = Maximum absorption wavelength of the adhesive composition (solution), UV-vis; conditions: adhesive composition in MEK; UV-vis apparatus (Shimazu UV-3600)
Description: (§1) Based on 100 parts by weight a solid content except for a solvent in an adhesive composition, 95.4 parts by weight of an adhesive material (AD-701 solid content, LG Chem.), 0.29 part by weight of Compound P1, 0.1 part by weight of an isocyanate-based cross-linking agent (T39M, Soken Chemical & Engineering Co., Ltd.), 0.2 part by weight of a silane-based coupling agent (T-789J, Soken Chemical & Engineering Co., Ltd.), 0.5 part by weight of an antioxidant (Kinox-80, Hannong Chemicals Inc.), 1.5 parts by weight of an antistatic agent (FC-4400, 3M), 2 parts by weight of a hindered amine light stabilizer (Tinuvin 123, BASF SE), and 0.001 part by weight of a catalyst (dibutyltin dilaurate, Sigma-Aldrich) were added to the adhesive composition, the solvent (methyl ethyl ketone, MEK) was added thereto in an amount of 25 parts by weight based on the total parts by weight of the adhesive composition, and a release layer (PET) was coated with the adhesive composition mixed using a mixer (Shaker, SKC 6100, JEIO Tech.) to have a thickness of 22 μm to 23 μm using a knife bar coating apparatus (KP-3000, Kipae E&T Co., Ltd.), thereby preparing an adhesive film. After coating, the release layer was removed, and the adhesive film and a binder resin film (TAC: cellulose triacetate) were sequentially laminated on glass through lamination, thereby producing a sample.
(§2) The maximum absorption wavelength λmax (nm) of each of the adhesive composition and the adhesive film was measured using a UV-vis apparatus (Shimazu UV-3600). In addition, the transmittance of the sample for light with a wavelength of 390 to 450 nm was measured by the UV-vis apparatus (Shimazu UV-3600). Under conditions of light fastness 55,600 lx*48 hours; under conditions of heat resistance 80° C. and for 500 hours; or under conditions of moisture resistance 60° C., 90% RH and for 500 hours, the sample was each exposed, and then the transmittance for light with a wavelength of 390 to 450 nm was re-measured. ΔT was calculated by dividing the value obtained by […] by the transmittance value immediately after the sample was produced, and the results under the evaluation conditions are shown in Table 1. Furthermore, the transmittance of the sample for light in a region with a wavelength of 450 nm or more was measured by the UV-vis apparatus (Shimazu UV-3600). Further, the solubility of Compound p1 to methyl ethyl ketone (MEK) was measured under conditions of 1 atm and room temperature.
(§3) Experiments were performed under the same conditions as in Example 1, except that Compounds P3 to P10, Compound P15 and Comparative Compounds Z1 and Z2 were used instead of Compound P1, respectively, in Example 1, and the experimental results are shown in the following Table 1.

[2] = Maximum absorption wavelength of the adhesive film (thin film), UV-vis; conditions: adhesive film 22 μm to 23 μm; UV-vis apparatus (Shimazu UV-3600)
Description: as §1, §2, §3

[3] = Light fastness of adhesive film sample (change in transmittance ΔT); conditions: ΔT of transmittance for light of 390 to 450 nm; adhesive film sample with 0.29 part by weight compound; 55,600 lx*48 hours
Description: as §1, §2
(§4) ΔT (%)={(transmittance measured immediately after the optical film was prepared−transmittance re-measured after the optical film is exposed to each condition of light fastness, heat resistance, and moisture resistance)/transmittance measured immediately after the optical film is prepared}×100
(§5) • ◯: ΔT 1.5% or less • Δ: ΔT more than 1.5% and 3% or less • X: ΔT more than 3%
(§6) The light fastness, heat resistance and moisture resistance were evaluated as ◯, Δ, and X based on whether the ΔT was 1.5% or less, more than 1.5% and 3% or less, or more than 3%, respectively.

[4] = Heat resistance of adhesive film sample (change in transmittance ΔT); conditions: ΔT of transmittance for light of 390 to 450 nm, 80° C. for 500 hours
Description: as §1, §2, §4, §5, §6

[5] = Moisture resistance of adhesive film sample (change in transmittance ΔT); conditions: ΔT of transmittance for light of 390 to 450 nm, 60° C., 90% RH for 500 hours
Description: as §1, §2, §4, §5, §6

[6] = Solubility of compound in methyl ethyl ketone (MEK); conditions: solubility to 10 g of methyl ethyl ketone; 1 atm and room temperature
Procedure: as §2
• ◯: 0.3 wt. % or more • Δ: more than 0.1 wt. % and less than 0.3 wt. % • X: 0.1 wt. % or less

[7] = Wavelength compatibility (transmittance of sample in region with 450 nm or more); conditions: for Wavelength compatibility: transmittance of adhesive film sample in region with wavelength of 450 nm or more; for wavelength compatibility (in words): verbal assessment
Procedure: as §2
• ◯: transmittance of 90% or more in region with 450 nm or more • Δ: transmittance of 80% or more in region with 450 nm or more • X: transmittance of 80% or less in region with 450 nm or more
The wavelength compatibility was evaluated as ◯, Δ, and X based on whether the transmittance in a region with 450 nm or more was 90% or more, 80% or more, or 80% or less, respectively.

[8] = Solution-phase UV-Vis spectrum (FIG. 2), wavelength distribution; conditions: P3 compared with Comparative Compound Z2
Description: FIG. 2 illustrates the solution-phase UV-Vis spectra of Compound P3 according to an exemplary embodiment of the present disclosure and Comparative Compound Z2 used in Comparative Example 2.
Since the compound according to an exemplary embodiment of the present disclosure may improve the light blocking efficiency or reduce the reflectance to external light by strongly absorbing light, the compound is excellent in wavelength compatibility in being included in an optical film. The wavelength compatibility can be confirmed by the wavelength distribution and the optimization appearing in the UV-Vis spectrum. For example, FIG. 2 illustrates the solution-phase UV-Vis spectra of Compound P3 according to an exemplary embodiment of the present disclosure and Comparative Compound Z2 used in Comparative Example 2. In FIG. 2, the dotted line is the solution-phase UV-Vis spectrum for Comparative Compound Z2, and the solid line is the solution-phase UV-Vis spectrum for Compound P3 according to an exemplary embodiment of the present disclosure.

Structure (SMILES)	λmax (nm) (Solution) [1]	λmax (nm) (Thin film) [2]	Light fastness [3]	Heat resistance [4]	Moisture resistance [5]	MEK solubility [6]	Wavelength compatibility [7]	wavelength compatibility (in words) [7]	wavelength distribution in solution-phase UV-Vis spectrum [8]
Cc1ccc(-n2nc(-c3ccccc3)c(C=C3C(=O)N(C4CCCCC4)C(=O)N(C4CCCCC4)C3=O)c2O)c(C)c1 [Compound P7]	399	399	∘	∘	∘	∘	∘	–	–
Cc1ccc(-n2nc(C(C)C)c(C=C3C(=O)N(C4CCCCC4)C(=O)N(C4CCCCC4)C3=O)c2O)c(C)c1 [Compound P10]	403	398	∘	∘	∘	∘	∘	–	–
Cc1ccccc1-n1nc(C(C)C)c(C=C2C(=O)N(c3ccccc3)C(=O)N(c3ccccc3)C2=O)c1O [Compound P15]	402	398	∘	∘	∘	Δ (more than 0.1 wt. % and less than 0.3 wt. %)	∘	–	–
CC1=NN(c2ccccc2)C(=O)/C1=C\c1c(C)nn(-c2ccccc2)c1O [Comparative Compound Z2, reference compound]	405	403	∘	∘	∘	∘	–	remarkably deteriorates compared to Examples 1 to 10	–
Cc1ccccc1-n1nc(C(C)C)c(C=C2C(=O)N(C3CCCCC3)C(=O)N(C3CCCCC3)C2=O)c1O [Compound P9]	403	399	∘	∘	∘	∘	∘	–	–
Cc1ccccc1-n1nc(-c2ccccc2)c(C=C2C(=O)N(C3CCCCC3)C(=O)N(C3CCCCC3)C2=O)c1O [Compound P6]	400	400	∘	Δ (ΔT more than 1.5% and 3% or less)	∘	Δ (more than 0.1 wt. % and less than 0.3 wt. %)	∘	–	–
CC(C)c1nn(-c2ccccc2)c(O)c1C=C1C(=O)N(C2CCCCC2)C(=O)N(C2CCCCC2)C1=O [Compound P8]	406	408	∘	Δ (ΔT more than 1.5% and 3% or less)	∘	Δ (more than 0.1 wt. % and less than 0.3 wt. %)	∘	–	–
Cc1nn(-c2ccccc2)c(O)c1C=C1C(=O)N(C2CCCCC2)C(=O)N(C2CCCCC2)C1=O [Compound P1]	411	407	Δ (ΔT more than 1.5% and 3% or less)	Δ (ΔT more than 1.5% and 3% or less)	∘	Δ (more than 0.1 wt. % and less than 0.3 wt. %)	∘	–	–
O=C1C(=Cc2c(-c3ccccc3)nn(-c3ccccc3)c2O)C(=O)N(C2CCCCC2)C(=O)N1C1CCCCC1 [Compound P5]	407	406	Δ (ΔT more than 1.5% and 3% or less)	∘	∘	Δ (more than 0.1 wt. % and less than 0.3 wt. %)	∘	–	–
Cc1ccccc1-n1nc(C)c(C=C2C(=O)N(C3CCCCC3)C(=O)N(C3CCCCC3)C2=O)c1O [Compound P3]	404	400	∘	∘	∘	∘	∘	excellent wavelength compatibility	narrower wavelength distribution than Comparative Compound Z2; also recorded: wavelength distribution narrower and more optimized than Comparative Compound Z2
Cc1nn(-c2ccccc2)c(O)c1C=C1C(=O)NC(=O)NC1=O [Comparative Compound Z1, reference compound]	412	425	–	–	Δ (ΔT more than 1.5% and 3% or less)	–	Δ (transmittance of 80% or more in region with 450 nm or more)	–	–
Cc1ccc(-n2nc(C)c(C=C3C(=O)N(C4CCCCC4)C(=O)N(C4CCCCC4)C3=O)c2O)c(C)c1 [Compound P4]	403	399	∘	∘	∘	∘	∘	–	–
